row,SMILES,melting point [°C]
1,"O=C(Nc1nccs1)C(CC1CCCC1)c1ccc(C#Cc2cncnc2)cc1 (stereo not drawn) [Example 10, 3-Cyclopentyl-2-(4-pyrimidin-5-ylethynyl-phenyl)-N-thiazol-2-yl-propionamide]",149 to 151
2,"O=C(Nc1nccs1)C(CC1CCCC1)c1ccc(C#Cc2ccccn2)cc1 (stereo not drawn) [Example 9, 3-Cyclopentyl-2-(4-pyridin-2-ylethynyl-phenyl)-N-thiazol-2-yl-propionamide]",185 to 187
3,"COCC#Cc1ccc(C(CC2CCCC2)C(=O)Nc2nccs2)cc1 (stereo not drawn) [Example 3, 3-Cyclopentyl-2-[4-(3-methoxy-prop-1-ynyl)-phenyl]-N-thiazol-2-yl-propionamide]",170 to 172
4,"CCC(C)(O)C#Cc1ccc(C(CC2CCCC2)C(=O)Nc2nccs2)cc1 (stereo not drawn) [Example 4, 3-Cyclopentyl-2-[4-(3-hydroxy-3-methyl-pent-1-ynyl)-phenyl]-N-thiazol-2-yl-propionamide]",172 to 174
5,"O=C(Nc1nccs1)C(CC1CCCC1)c1ccc(C#CCO)cc1 (stereo not drawn) [Example 6, 3-Cyclopentyl-2-[4-(3-hydroxy-prop-1-ynyl)-phenyl]-N-thiazol-2-yl-propionamide]",220 to 222
6,"CC(O)CC#Cc1ccc(C(CC2CCCC2)C(=O)Nc2nccs2)cc1 (stereo not drawn) [Example 5, 3-Cyclopentyl-2-[4-(4-hydroxy-pent-1-ynyl)-phenyl]-N-thiazol-2-yl-propionamide]",162 to 163
7,"O=C(Nc1nccs1)C(CC1CCCC1)c1ccc(C#CC2(O)CCCCC2)cc1 (stereo not drawn) [Example 2, 3-Cyclopentyl-2-[4-(1-hydroxy-cyclohexylethynyl)-phenyl]-N-thiazol-2-yl-propionamide]",172 to 173
8,CN(C)CC#Cc1ccc(C(CC2CCCC2)C(=O)Nc2nccs2)cc1 (stereo not drawn) [Example 7],164 to 167
9,"C#Cc1ccc(C(CC2CCCC2)C(=O)Nc2nccs2)cc1 (stereo not drawn) [Example 1, 3-Cyclopentyl-2-(4-ethynyl-phenyl)-N-thiazol-2-yl-propionamide]",181 to 183

# Source: patent US6388071B2, “Alkynyl phenyl heteroaromatic glucokinase activators” (Hoffmann-La Roche Inc., priority 2000, dated 2002)
